Target: IDO1 (Homo sapiens, UniProt P14902)
Test: IDO1 Cellular Assay in HeLa Cells Stimulated with IFNγ
Format: cell-based
Details: IFNγ 100 ng/mL, 300 uM L-tryptophan, about 48 hours, fluorescence readout, read-out: IDO1 HELA Cell Assay, IC50

Sequence of IDO1 (P14902 whole entry): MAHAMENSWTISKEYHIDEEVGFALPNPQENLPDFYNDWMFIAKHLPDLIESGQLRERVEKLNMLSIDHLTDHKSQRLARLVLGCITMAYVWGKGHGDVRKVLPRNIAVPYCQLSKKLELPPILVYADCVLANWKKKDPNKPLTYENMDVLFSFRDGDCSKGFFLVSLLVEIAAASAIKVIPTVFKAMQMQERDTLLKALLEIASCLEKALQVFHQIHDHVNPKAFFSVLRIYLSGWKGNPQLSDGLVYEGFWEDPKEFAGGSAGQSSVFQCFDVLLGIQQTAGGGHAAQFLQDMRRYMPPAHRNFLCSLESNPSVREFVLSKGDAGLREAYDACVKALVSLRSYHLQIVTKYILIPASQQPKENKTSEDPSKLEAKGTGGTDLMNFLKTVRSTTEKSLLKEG

Row | SMILES | IC50
1 | COc1c(F)cccc1C1CCN(C(=O)Cn2nc(C(=O)N3C[C@@H](C)O[C@@H](C)C3)c3c2CCC3)CC1 [Example 115, 2-{3-[(2R,6S)-2,6-dimethylmorpholine-4-carbonyl]-5,6-dihydrocyclopenta[c]pyrazol-1(4H)-yl}-1-[4-(3-fluoro-2-methoxyphenyl)piperidin-1-yl]ethan-1-one] | 48.5 nM
2 | C[C@@H]1CN(C(=O)c2nn(CC(=O)N3CCC(c4cccc5c(F)cccc45)CC3)c3c2CCC3)C[C@H](C)O1 [Example 85, 2-{3-[(2R,6S)-2,6-dimethylmorpholine-4-carbonyl]-5,6-dihydrocyclopenta[c]pyrazol-1(4H)-yl}-1-[4-(5-fluoronaphthalen-1-yl)piperidin-1-yl]ethan-1-one] | 5.3 nM
3 | C[C@@H]1CN(C(=O)c2nn(CC(=O)N3CCC(c4ccccc4)C(F)(F)C3)c3c2CCC3)C[C@H](C)O1 (stereo partly drawn) [Example 72, 1-(3,3-difluoro-4-phenylpiperidin-1-yl)-2-{3-[(2R,6S)-2,6-dimethylmorpholine-4-carbonyl]-5,6-dihydrocyclopenta[c]pyrazol-1(4H)-yl}ethan-1-one] | 144 nM
4 | Cc1c(F)cccc1C1CCCN(C(=O)Cn2nc(C(=O)N3C[C@@H](C)O[C@@H](C)C3)c3c2CCC3)C1 (stereo partly drawn) [Example 77, 2-{3-[(2R,6S)-2,6-dimethylmorpholine-4-carbonyl]-5,6-dihydrocyclopenta[c]pyrazol-1(4H)-yl}-1-[3-(3-fluoro-2-methylphenyl)piperidin-1-yl] ethan-1-one] | 233 nM
5 | Cc1cc(C)cc(C2CCN(C(=O)Cn3nc(C(=O)N4C[C@@H](C)O[C@@H](C)C4)c4c3CCC4)CC2)c1 [Example 155, 2-{3-[(2R,6S)-2,6-dimethylmorpholine-4-carbonyl]-5,6-dihydrocyclopenta[c]pyrazol-1(4H)-yl}-1-[4-(3,5-dimethylphenyl)piperidin-1-yl]ethan-1-one] | 143 nM
6 | C[C@@H]1CN(C(=O)c2nn(CC(=O)N3CCC(c4ccc(Cl)cc4)CC3)c3c2CCC3)C[C@H](C)O1 [Example 114, 1-[4-(4-chlorophenyl)piperidin-1-yl]-2-{3-[(2R,6S)-2,6-dimethylmorpholine-4-carbonyl]-5,6-dihydrocyclopenta[c]pyrazol-1(4H)-yl}ethan-1-one] | 45.8 nM
7 | C[C@@H]1CN(C(=O)c2nn(CC(=O)N3CCC(c4ccccc4OC(F)(F)F)CC3)c3c2CCC3)C[C@H](C)O1 [Example 163, 2-{3-[(2R,6S)-2,6-dimethylmorpholine-4-carbonyl]-5,6-dihydrocyclopenta[c]pyrazol-1(4H)-yl}-1-{4-[2-(trifluoromethoxy)phenyl]piperidin-1-yl}ethan-1-one] | 177 nM
8 | C[C@@H]1CN(C(=O)c2nn(CC(=O)N3CCC(c4cc(Cl)cc(Cl)c4)CC3)c3c2CCC3)C[C@H](C)O1 [Example 167, 1-[4-(3,5-dichlorophenyl)piperidin-1-yl]-2-{3-[(2R,6S)-2,6-dimethylmorpholine-4-carbonyl]-5,6-dihydrocyclopenta[c]pyrazol-1(4H)-yl}ethan-1-one] | 274 nM
9 | CCc1ccc(C2CCN(C(=O)Cn3nc(C(=O)N4C[C@@H](C)O[C@@H](C)C4)c4c3CCC4)CC2)cc1 [Example 146, 2-{3-[(2R,6S)-2,6-dimethylmorpholine-4-carbonyl]-5,6-dihydrocyclopenta[c]pyrazol-1(4H)-yl}-1-[4-(4-ethylphenyl)piperidin-1-yl]ethan-1-one] | 107 nM
10 | C[C@@H]1CN(C(=O)c2nn(CC(=O)N3CCC(c4ccc(Cl)cc4F)CC3)c3c2CCC3)C[C@H](C)O1 [Example 135, 1-[4-(4-chloro-2-fluorophenyl)piperidin-1-yl]-2-{3-[(2R,6S)-2,6-dimethylmorpholine-4-carbonyl]-5,6-dihydrocyclopenta[c]pyrazol-1(4H)-yl}ethan-1-one] | 83.4 nM
11 | C[C@@H]1CN(C(=O)c2nn(CC(=O)N3CCC(c4cc(Cl)ccc4F)CC3)c3c2CCC3)C[C@H](C)O1 [Example 166, 1-[4-(5-chloro-2-fluorophenyl)piperidin-1-yl]-2-{3-[(2R,6S)-2,6-dimethylmorpholine-4-carbonyl]-5,6-dihydrocyclopenta[c]pyrazol-1(4H)-yl}ethan-1-one] | 261 nM
12 | Cc1c(C#N)cccc1C1CCN(C(=O)Cn2nc(C(=O)N3C[C@@H](C)O[C@@H](C)C3)c3c2CCC3)CC1 [Example 129, 3-[1-({3-[(2R,6S)-2,6-dimethylmorpholine-4-carbonyl]-5,6-dihydrocyclopenta[c]pyrazol-1(4H)-yl}acetyl)piperidin-4-yl]-2-methylbenzonitrile] | 64.1 nM
13 | Cc1cccc(C2CCN(C(=O)Cn3nc(C(=O)N4CC[C@@H](O)[C@H](C)C4)c4c3CCC4)CC2)c1C [Example 39, 1-(4-(2,3-dimethylphenyl)piperidin-1-yl)-2-(3-((3R,4R)-4-hydroxy-3-methylpiperidine-1-carbonyl)-5,6-dihydrocyclopenta[c]pyrazol-1(4H)-yl)ethan-1-one] | 1.9 nM
14 | COc1ccc(C2CCN(C(=O)Cn3nc(C(=O)N4C[C@@H](C)O[C@@H](C)C4)c4c3CCC4)CC2)c(C)c1C [Example 138, 2-{3-[(2R,6S)-2,6-dimethylmorpholine-4-carbonyl]-5,6-dihydrocyclopenta[c]pyrazol-1(4H)-yl}-1-[4-(4-methoxy-2,3-dimethylphenyl)piperidin-1-yl]ethan-1-one] | 87.6 nM
15 | Cc1ccc(C2CCN(C(=O)Cn3nc(C(=O)N4C[C@@H](C)O[C@@H](C)C4)c4c3CCC4)CC2)cc1Cl [Example 111, 1-[4-(3-chloro-4-methylphenyl)piperidin-1-yl]-2-{3-[(2R,6S)-2,6-dimethylmorpholine-4-carbonyl]-5,6-dihydrocyclopenta[c]pyrazol-1(4H)-yl}ethan-1-one] | 40.3 nM
16 | Cc1cccc(C2CCN(C(=O)Cn3nc(C(=O)N4CC[C@H](O)C4)c4c3CCC4)CC2)c1C [Example 48, (S)-1-(4-(2,3-dimethylphenyl)piperidin-1-yl)-2-(3-(3-hydroxypyrrolidine-1-carbonyl)-5,6-dihydrocyclopenta[c]pyrazol-1(4H)-yl)ethan-1-one] | 27 nM
17 | Cc1cc(F)ccc1C1CCN(C(=O)Cn2nc(C(=O)N3CC[C@H](O)[C@@H](F)C3)c3c2CCC3)CC1 [Example 52, 1-(4-(4-fluoro-2-methylphenyl)piperidin-1-yl)-2-(3-((3S,4S)-3-fluoro-4-hydroxypiperidine-1-carbonyl)-5,6-dihydrocyclopenta[c]pyrazol-1(4H)-yl)ethanone] | 111 nM
18 | C[C@@H]1CN(C(=O)c2nn(CC(=O)N3CCC(c4cccc(Cl)c4Cl)CC3)c3c2CCC3)C[C@H](C)O1 [Example 87, 1-[4-(2,3-dichlorophenyl)piperidin-1-yl]-2-{3-[(2R,6S)-2,6-dimethylmorpholine-4-carbonyl]-5,6-dihydrocyclopenta[c]pyrazol-1(4H)-yl}ethan-1-one] | 7.8 nM
19 | Cc1cc(C2CCN(C(=O)Cn3nc(C(=O)N4C[C@@H](C)O[C@@H](C)C4)c4c3CCC4)CC2)cc(C)c1Cl [Example 116, 1-[4-(4-chloro-3,5-dimethylphenyl)piperidin-1-yl]-2-{3-[(2R,6S)-2,6-dimethylmorpholine-4-carbonyl]-5,6-dihydrocyclopenta[c]pyrazol-1(4H)-yl}ethan-1-one] | 48.6 nM
20 | Cc1cccc(C2CCN(C(=O)Cn3nc(C(=O)N4CC(C)(O)C4)c4c3CCC4)CC2)c1C [Example 50, 1-(4-(2,3-dimethylphenyl)piperidin-1-yl)-2-(3-(3-hydroxy-3-methylazetidine-1-carbonyl)-5,6-dihydrocyclopenta[c]pyrazol-1(4H)-yl)ethan-1-one] | 40.1 nM
21 | C[C@@H]1CN(C(=O)c2nn(CC(=O)N3CCC(c4cccc(F)c4C(F)(F)F)CC3)c3c2CCC3)C[C@H](C)O1 [Example 118, 2-{3-[(2R,6S)-2,6-dimethylmorpholine-4-carbonyl]-5,6-dihydrocyclopenta[c]pyrazol-1(4H)-yl}-1-{4-[3-fluoro-2-(trifluoromethyl)phenyl]piperidin-1-yl}ethan-1-one] | 49.8 nM
22 | Cc1c(C2CCN(C(=O)Cn3nc(C(=O)N4CCN(CC(N)=O)CC4)c4c3C[C@H]3C[C@@H]43)CC2)cccc1C(F)(F)F [Example 6, 2-(4-((3bR,4aR)-1-(2-(4-(2-methyl-3-(trifluoromethyl)phenyl)piperidin-1-yl)-2-oxoethyl)-3b,4,4a,5-tetrahydro-1H-cyclopropa[3,4]cyclopenta[1,2-c]pyrazole-3-carbonyl)piperazin-1-yl)acetamide] | 2.5 nM
23 | C[C@@H]1CN(C(=O)c2nn(CC(=O)N3CCC(c4cccc(CC(F)(F)F)c4)CC3)c3c2CCC3)C[C@H](C)O1 [Example 164, 2-{3-[(2R,6S)-2,6-dimethylmorpholine-4-carbonyl]-5,6-dihydrocyclopenta[c]pyrazol-1(4H)-yl}-1-{4-[3-(2,2,2-trifluoroethyl)phenyl]piperidin-1-yl}ethan-1-one] | 206 nM
24 | C[C@@H]1CN(C(=O)c2nn(CC(=O)N3CCC(c4cccc5cnccc45)CC3)c3c2CCC3)C[C@H](C)O1 [Example 171, 2-{3-[(2R,6S)-2,6-dimethylmorpholine-4-carbonyl]-5,6-dihydrocyclopenta[c]pyrazol-1(4H)-yl}-1-[4-(isoquinolin-5-yl)piperidin-1-yl]ethan-1-one] | 440 nM
25 | Cc1cc(F)ccc1C1CCN(C(=O)Cn2nc(C(=O)N3CCC(O)(CF)CC3)c3c2CCC3)CC1 [Example 53, 1-(4-(4-fluoro-2-methylphenyl)piperidin-1-yl)-2-(3-(4-(fluoromethyl)-4-hydroxypiperidine-1-carbonyl)-5,6-dihydrocyclopenta[c]pyrazol-1 (4H)-yl)ethanone] | 114 nM
26 | Cc1cccc(F)c1C1CCN(C(=O)Cn2nc(C(=O)N3C[C@@H](C)O[C@@H](C)C3)c3c2CCC3)CC1 [Example 158, 2-{3-[(2R,6S)-2,6-dimethylmorpholine-4-carbonyl]-5,6-dihydrocyclopenta[c]pyrazol-1(4H)-yl}-1-[4-(2-fluoro-6-methylphenyl)piperidin-1-yl]ethan-1-one] | 153 nM
27 | C[C@@H]1CN(C(=O)c2nn(CC(=O)N3CCC(c4cc(F)c(F)c(F)c4)CC3)c3c2CCC3)C[C@H](C)O1 [Example 126, 2-{3-[(2R,6S)-2,6-dimethylmorpholine-4-carbonyl]-5,6-dihydrocyclopenta[c]pyrazol-1(4H)-yl}-1-[4-(3,4,5-trifluorophenyl)piperidin-1-yl]ethan-1-one] | 59 nM
